The text below walks through data of patent US20060281722A1, “Compounds and uses thereof” (priority 2005, published 2006).

The assay deals with Tumor Necrosis Factor alpha (TNFα). In words: Lipopolysaccharide (LPS)-induced serum TNFα in rats (oral dosing 2 h before LPS, serum ELISA). Type of assay: in vivo. The arrangement: unit not given here. The settings on record: LPS 0.01 mg/Kg intraperitoneal, male Lewis rats. The protocol: The purpose of this study was to examine the ability of compound 1 to suppress lipopolysaccharide (LPS)-induced Tumor Necrosis Factor alpha (TNFα) levels when administered to male Lewis rats.
Compound 1 was added directly to 100% ethanol. The suspension was vortexed vigorously until all of compound 1 was completely dissolved or fully suspended. The solution was made up to volume in 0.5% methylcellulose. The final concentration of ethanol was 10%.
At time minus 2 hours, rats were administered the appropriate amount of prednisolone and/or compound 1 via oral gavage in a dose volume of 0.25 mL. Untreated control and LPS Control animals received 0.25 mL of the vehicle only.
LPS was prepared at a 100X concentration by resuspension in Phosphate Buffered Saline (PBS). The LPS solution was vortexed vigorously to ensure complete suspension of the LPS. Immediately prior to injection, the LPS was serial diluted in PBS to a 1× working solution.
At time 0, animals were injected via the intraperitoneal route with 1.0 mL of the 1×LPS working solution (final LPS dose is 0.01 mg/Kg body weight) using a 25 gauge needle. Vehicle control animals received 1 mL of PBS.
Blood was expelled into a serum separator tube containing Clot Activator (Becton Dickinson, Franklin Lakes, N.J.). Samples were allowed to sit at room temperature for 30 min prior to spinning at 2000 rpm for 10 min in a bench top centrifuge at room temperature. Serum was transferred to an Eppendorf tube and immediately assayed for TNFα or stored at −80° C. until assayed.
Serum samples were assayed using the BioSource Rat TNFα ELISA kit according to the manufacturer's instructions.
Evaluation of the results included statistical analysis of differences in serum TNFα between treatment and control groups. Group means were compared using a one-way ANOVA. If the ANOVA was significant, p≦0.05, a multiple comparison test (Tukey-Kramer) was used to determine which groups were different.
On the technique in general: In an ELISA, binding on a coated surface is turned into a signal by an enzyme label.

In the case of `Clc1ccc2c(c1)C(N1CCN(CCN3CCOCC3)CC1)=Nc1ccccc1O2` [compound1], the “Serum TNFα ± Standard Error” value by setting is: (0.3 mg/kg compound 1, oral gavage at minus 2 hours) 13675.6 ± 7606.9; (1 mg/kg compound 1, oral gavage at minus 2 hours) 12769.1 ± 5231.2; (3 mg/kg compound 1, oral gavage at minus 2 hours) 12980.4 ± 6788.4.
Take `C[C@]12C=CC(=O)C=C1CC[C@@H]1[C@@H]2[C@@H](O)C[C@@]2(C)[C@H]1CC[C@]2(O)C(=O)CO` [prednisolone, reference compound]: the “Serum TNFα ± Standard Error” value (0.3 mg/kg prednisolone, oral gavage at minus 2 hours) is given as 11375.9 ± 5238.4 and the “Serum TNFα ± Standard Error” value (10 mg/kg prednisolone, oral gavage at minus 2 hours) turned out to be 6239.3 ± 5020.4.
